Data on four compounds can be found in ChEMBL document CHEMBL1649454, “Genetic analysis of colistin resistance in Salmonella enterica serovar Typhimurium” (2009).

Calls of active or inactive are those of the source. No cut-off for these calls is given here.

The subject of assay [1] is Salmonella typhimurium. In words: Antimicrobial activity against Salmonella enterica serovar Typhimurium LT2 DA6192 grown in liquid culture. The assay is classed as functional.
The test system of assay [2] is Salmonella typhimurium. In words: Antimicrobial activity against Salmonella enterica serovar Typhimurium LT2 DA10826 harboring pmrA (GGG to GAG, G53E mutant) grown in liquid culture. The assay is classed as functional.
For assay [3], the system named is Salmonella typhimurium. In words: Antimicrobial activity against Salmonella enterica serovar Typhimurium LT2 DA10833 harboring pmrB (GAA to AAA, E161K mutant) grown in liquid culture. The assay is classed as functional.
Assay [4] deals with Salmonella typhimurium. In words: Antimicrobial activity against Salmonella enterica serovar Typhimurium LT2 DA10840 harboring pmrA (CGC to CAC, R81H mutant) grown in liquid culture. The assay is classed as functional.
In assay [5] the test system is Salmonella typhimurium. In words: Antimicrobial activity against Salmonella enterica serovar Typhimurium LT2 DA10845 harboring pmrB (ATG to ATA, M186I mutant) grown in liquid culture. The assay is classed as functional.
For assay [6], the system named is Salmonella typhimurium. In words: Antimicrobial activity against Salmonella enterica serovar Typhimurium LT2 DA6192 by Etest method. The assay is classed as functional, organism-based. The conditions noted are these: Salmonella enterica subsp. enterica serovar Typhimurium str. LT2.
Assay [7] deals with Salmonella typhimurium. In words: Antimicrobial activity against Salmonella enterica serovar Typhimurium LT2 DA10844 harboring pmrA (GGG to AGG, G15R mutant) by Etest method. The assay is classed as functional, organism-based. The conditions noted are these: Salmonella enterica subsp. enterica serovar Typhimurium str. LT2.
Assay [8] has as its system Salmonella typhimurium. In words: Antimicrobial activity against Salmonella enterica serovar Typhimurium LT2 DA10826 harboring pmrA (GGG to GAG, G53E mutant)by Etest method. The assay is classed as functional, organism-based. The conditions noted are these: Salmonella enterica subsp. enterica serovar Typhimurium str. LT2.
The test system of assay [9] is Salmonella typhimurium. In words: Antimicrobial activity against Salmonella enterica serovar Typhimurium LT2 DA10850 harboring pmrA (GGG to AGG, G53R mutant) by Etest method. The assay is classed as functional, organism-based. The conditions noted are these: Salmonella enterica subsp. enterica serovar Typhimurium str. LT2.
The subject of assay [10] is Salmonella typhimurium. In words: Antimicrobial activity against Salmonella enterica serovar Typhimurium LT2 DA10857 harboring pmrA (CGC to TGC, R81C mutant) by Etest method. The assay is classed as functional, organism-based. The conditions noted are these: Salmonella enterica subsp. enterica serovar Typhimurium str. LT2.
In assay [11] the test system is Salmonella typhimurium. In words: Antimicrobial activity against Salmonella enterica serovar Typhimurium LT2 DA10840 harboring pmrA (CGC to CAC, R81H mutant) by Etest method. The assay is classed as functional, organism-based. The conditions noted are these: Salmonella enterica subsp. enterica serovar Typhimurium str. LT2.
For assay [12], the system named is Salmonella typhimurium. In words: Antimicrobial activity against Salmonella enterica serovar Typhimurium LT2 DA10829 harboring pmrB (AGT to AGA, S29R mutant) by Etest method. The assay is classed as functional, organism-based. The conditions noted are these: Salmonella enterica subsp. enterica serovar Typhimurium str. LT2.
The subject of assay [13] is Salmonella typhimurium. In words: Antimicrobial activity against Salmonella enterica serovar Typhimurium LT2 DA10832 harboring pmrB (ACC to GCC, T92A mutant) by Etest method. The assay is classed as functional, organism-based. The conditions noted are these: Salmonella enterica subsp. enterica serovar Typhimurium str. LT2.
Assay [14] has as its system Salmonella typhimurium. In words: Antimicrobial activity against Salmonella enterica serovar Typhimurium LT2 DA10837 harboring pmrB (CCG to CAG, P94Q mutant) by Etest method. The conditions noted are these: Salmonella enterica subsp. enterica serovar Typhimurium str. LT2. The assay is classed as functional, organism-based.
In assay [15] the test system is Salmonella typhimurium. In words: Antimicrobial activity against Salmonella enterica serovar Typhimurium LT2 DA10862 harboring pmrB (GAG to GCG, E21A mutant) by Etest method. The assay is classed as functional, organism-based. The conditions noted are these: Salmonella enterica subsp. enterica serovar Typhimurium str. LT2.
The subject of assay [16] is Salmonella typhimurium. In words: Antimicrobial activity against Salmonella enterica serovar Typhimurium LT2 DA10839 harboring pmrB (TCC to CCC, S124P mutant) by Etest method. The assay is classed as functional, organism-based. The conditions noted are these: Salmonella enterica subsp. enterica serovar Typhimurium str. LT2.
The subject of assay [17] is Salmonella typhimurium. In words: Antimicrobial activity against Salmonella enterica serovar Typhimurium LT2 DA10853 pmrB AAT to TAT and N130Y mutant by Etest method. The assay is classed as functional, organism-based. The conditions noted are these: Salmonella enterica subsp. enterica serovar Typhimurium str. LT2.
Assay [18] has as its system Salmonella typhimurium. In words: Antimicrobial activity against Salmonella enterica serovar Typhimurium LT2 DA10874 harboring pmrB ACC to CCC, T147P mutant) by Etest method. The assay is classed as functional, organism-based. The conditions noted are these: Salmonella enterica subsp. enterica serovar Typhimurium str. LT2.
Assay [19] has as its system Salmonella typhimurium. In words: Antimicrobial activity against Salmonella enterica serovar Typhimurium LT2 DA10848 harboring pmrB (ACG to CCG, T156P mutant) by Etest method. The conditions noted are these: Salmonella enterica subsp. enterica serovar Typhimurium str. LT2. The assay is classed as functional, organism-based.
For assay [20], the system named is Salmonella typhimurium. In words: Antimicrobial activity against Salmonella enterica serovar Typhimurium LT2 DA10856 harboring pmrB (GTG to ATG, V161M mutant) by Etest method. The assay is classed as functional, organism-based. The conditions noted are these: Salmonella enterica subsp. enterica serovar Typhimurium str. LT2.
The subject of assay [21] is Salmonella typhimurium. In words: Antimicrobial activity against Salmonella enterica serovar Typhimurium LT2 DA10835 harboring (pmrB GTG to CTG, V161L mutant) by Etest method. The assay is classed as functional, organism-based. The conditions noted are these: Salmonella enterica subsp. enterica serovar Typhimurium str. LT2.
Assay [22] relates to Salmonella typhimurium. In words: Antimicrobial activity against Salmonella enterica serovar Typhimurium LT2 DA10859 harboring pmrB (GTG to GGG, V161G mutant) by Etest method. The assay is classed as functional, organism-based. The conditions noted are these: Salmonella enterica subsp. enterica serovar Typhimurium str. LT2.
Assay [23] concerns Salmonella typhimurium. In words: Antimicrobial activity against Salmonella enterica serovar Typhimurium LT2 DA10833 harboring pmrB (GAA to AAA, E161K mutant) by Etest method. The assay is classed as functional, organism-based. The conditions noted are these: Salmonella enterica subsp. enterica serovar Typhimurium str. LT2.
In assay [24] the test system is Salmonella typhimurium. In words: Antimicrobial activity against Salmonella enterica serovar Typhimurium LT2 DA10845 harboring pmrB (ATG to ATA, M186I mutant) by Etest method. The conditions noted are these: Salmonella enterica subsp. enterica serovar Typhimurium str. LT2. The assay is classed as functional, organism-based.
Assay [25] concerns Salmonella typhimurium. In words: Antimicrobial activity against Salmonella enterica serovar Typhimurium LT2 DA10863 harboring pmrB (GGG to TGG, G206W mutant) by Etest method. The assay is classed as functional, organism-based. The conditions noted are these: Salmonella enterica subsp. enterica serovar Typhimurium str. LT2.
For assay [26], the system named is Salmonella typhimurium. In words: Antimicrobial activity against Salmonella enterica serovar Typhimurium LT2 DA10875 harboring pmrB (GGG to AGG, G206R mutant) by Etest method. The assay is classed as functional, organism-based. The conditions noted are these: Salmonella enterica subsp. enterica serovar Typhimurium str. LT2.
Assay [27] concerns Salmonella typhimurium. In words: Antimicrobial activity against Salmonella enterica serovar Typhimurium LT2 DA10831 harboring pmrB (AGC to CGC, S305R mutant) by Etest method. The assay is classed as functional, organism-based. The conditions noted are these: Salmonella enterica subsp. enterica serovar Typhimurium str. LT2.
The subject of assay [28] is Salmonella typhimurium. In words: Antimicrobial activity against Salmonella enterica serovar Typhimurium LT2 DA10864 harboring pmrB (AGC to AGA, S305R mutant) by Etest method. The assay is classed as functional, organism-based. The conditions noted are these: Salmonella enterica subsp. enterica serovar Typhimurium str. LT2.
For assay [29], the system named is Salmonella typhimurium. In words: Bactericidal activity against Salmonella enterica serovar Typhimurium LT2 DA6192 at 1 mg/L after 30 mins by time kill study. The conditions noted are these: Salmonella enterica subsp. enterica serovar Typhimurium str. LT2. The assay is classed as functional, organism-based.
Assay [30] concerns Salmonella typhimurium. In words: Bactericidal activity against Salmonella enterica serovar Typhimurium LT2 DA10829 harboring pmrB S29R mutant at 16 mg/L after 30 mins by time kill study. The assay is classed as functional, organism-based. The conditions noted are these: Salmonella enterica subsp. enterica serovar Typhimurium str. LT2.
Assay [31] relates to Salmonella typhimurium. In words: Bactericidal activity against Salmonella enterica serovar Typhimurium LT2 DA10845 harboring pmrB M186I mutant at 16 mg/L after 30 mins by time kill study. The assay is classed as functional, organism-based. The conditions noted are these: Salmonella enterica subsp. enterica serovar Typhimurium str. LT2.
For assay [32], the system named is Salmonella typhimurium. In words: Bactericidal activity against Salmonella enterica serovar Typhimurium LT2 DA10840 harboring pmrA R81H mutant at 16 mg/L after 30 mins by time kill study. The assay is classed as functional, organism-based. The conditions noted are these: Salmonella enterica subsp. enterica serovar Typhimurium str. LT2.
Assay [33] concerns Salmonella typhimurium. In words: Bactericidal activity against Salmonella enterica serovar Typhimurium LT2 DA10829 harboring pmrB S29R mutant at 16 mg/L after 240 mins by time kill study. The assay is classed as functional, organism-based. The conditions noted are these: Salmonella enterica subsp. enterica serovar Typhimurium str. LT2.
Assay [34] relates to Salmonella typhimurium. In words: Bactericidal activity against Salmonella enterica serovar Typhimurium LT2 DA10845 harboring pmrB M186I mutant at 16 mg/L after 240 mins by time kill study. The assay is classed as functional, organism-based. The conditions noted are these: Salmonella enterica subsp. enterica serovar Typhimurium str. LT2.
In assay [35] the test system is Salmonella typhimurium. In words: Bactericidal activity against Salmonella enterica serovar Typhimurium LT2 DA10840 harboring pmrA R81H mutant at 16 mg/L after 240 mins by time kill study. The assay is classed as functional, organism-based. The conditions noted are these: Salmonella enterica subsp. enterica serovar Typhimurium str. LT2.
[36] abbreviates: Salmonella enterica subsp. enterica serovar Typhimurium str. LT2.

The MIC is the lowest concentration that inhibits growth of the organism.

For `CC[C@H](C)[C@H](NC(=O)[C@H](CCCCN)NC(=O)[C@H](CCC(=O)O)NC(=O)[C@H](CCCCN)NC(=O)[C@H](CO)NC(=O)[C@H](CCCCN)NC(=O)[C@H](CCCNC(=N)N)NC(=O)[C@H](Cc1ccccc1)NC(=O)[C@H](Cc1ccccc1)NC(=O)[C@H](CC(=O)O)NC(=O)CNC(=O)[C@H](CC(C)C)NC(=O)[C@@H](N)CC(C)C)C(=O)NCC(=O)N[C@@H](CCCCN)C(=O)N[C@@H](CCC(=O)O)C(=O)N[C@@H](Cc1ccccc1)C(=O)N[C@@H](CCCCN)C(=O)N[C@@H](CCCNC(=N)N)C(=O)N[C@H](C(=O)N[C@H](C(=O)N[C@@H](CCC(N)=O)C(=O)N[C@@H](CCCNC(=N)N)C(=O)N[C@H](C(=O)N[C@@H](CCCCN)C(=O)N[C@@H](CC(=O)O)C(=O)N[C@@H](Cc1ccccc1)C(=O)N[C@@H](CC(C)C)C(=O)N[C@@H](CCCNC(=N)N)C(=O)N[C@@H](CC(N)=O)C(=O)N[C@@H](CC(C)C)C(=O)N[C@H](C(=O)N1CCC[C@H]1C(=O)N[C@@H](CCCNC(=N)N)C(=O)N[C@H](C(=O)N[C@@H](CCC(=O)O)C(=O)N[C@@H](CO)C(=O)O)[C@@H](C)O)C(C)C)[C@@H](C)CC)C(C)C)[C@@H](C)CC` [CATHELICIDIN], the MIC turned out to be 15 µM in assay [1]; 25 µM in assay [2]; 25 µM in [3]; 25 µM in assay [4]; 25 µM in [5].

For the compound BLEOMYCIN, the MIC in assay [1] (setting [36]), in assay [2] (setting [36]), in [3] (setting [36]), in [4] (setting [36]) and in assay [5] (setting [36]) was 0.19 µg/mL in each case.

In the case of COLISTIN, the MIC was 0.125 µg/mL in [6]; 2.7 µg/mL in assay [7]; 3 µg/mL in [8]; 3 µg/mL in assay [9]; 4 µg/mL in assay [10]; 3 µg/mL in [11]. The MIC in assay [12] was 0.5 µg/mL; in [13] it was 0.25 µg/mL; in assay [14], 2.5 µg/mL; in assay [15], 4 µg/mL; in assay [16], 2.3 µg/mL; in assay [17] it was 2 µg/mL. Moreover, the MIC came out at 2.5 µg/mL in assay [18]; 4.4 µg/mL in [19]; 4 µg/mL in assay [20]; 2 µg/mL in assay [21]; 3 µg/mL in [22]; 3 µg/mL in assay [23]. The MIC in assay [24] turned out to be 2.8 µg/mL; in [25], 2 µg/mL; in assay [26], 2 µg/mL; in [27] it was 2.7 µg/mL; in assay [28] it was 2.7 µg/mL. Besides, the result in [29], in assay [30], in assay [31], in [32], in assay [33] and in assay [34] was Active. Moreover, the outcome in [35] was Active.

As for “H-RRRPRPPYLPRPRPPPFFPPRLPPRIPPGFPPRFPPRFP-NH2”, the MIC in assay [1], in assay [2], in [3], in assay [4] and in [5] was 3 µM in each case.
